Experimental data as given in PMC9919490, “Synthesis and Biological Evaluation of Novel Dispiro-Indolinones with Anticancer Activity” (Molecules, 2023).

Key:
LNCaP cells = test: MTT cytotoxicity assay, LNCaP (p53 pos); type: cell-based; conditions: Homo sapiens, LNCaP, 48 h
PC3 cells = test: MTT cytotoxicity assay, PC3 (p53 neg); type: cell-based; conditions: Homo sapiens, PC-3, 48 h
HCT^wt cells = test: MTT cytotoxicity assay, HCT^wt (p53 pos); type: cell-based; conditions: 48 h
HCT^−/− cells = test: MTT cytotoxicity assay, HCT^−/− (p53 neg); type: cell-based; conditions: 48 h
P388 = P388 transplant model in mice; type: in vivo; conditions: for ALS (average life span): control 16.6 ± 1.8 d
Description: To preliminary estimate the antitumor effect of the compound in vivo, transplant P388 and HCT116 xenograft mouse models were used.
Prior to the trials, the animals were split into different groups (five mice per group). One group was monitored as a control population, where the animals were kept untreated, while the other groups were subjected to the tested compound. […] Four independent trials were carried out.
For the first evaluation, the sample was initially injected i.p. on day 2 of the study, and the treatment was subsequently continued during the following 9 days (total 10 d course). The typical doses were calculated considering the average body weight of the animals (20 g) and ranged between groups 1 and 3; group 4 was assigned as a control population. […] To verify the obtained results, we performed the second evaluation using the following schedule: the first group was administered i.p. with 500 mg/kg (5000 mg/kg), the second group was given 750 mg/kg (7500 mg/kg), and the third group was given 1000 mg/kg (10,000 mg/kg). We also carried out the third trial with an appropriate dose of 1000 mg/kg. For p.o. administration (trial 4), we used a single dose (170 mg/kg) of the unmodified compound; the cumulative dose was 1700 mg/kg.
DBA2 mice were used as donors of cancerous mass; a total of 50 animals were recruited. Twenty-three conventional, immunodeficient female mice (BALB/c nude, 20–23 g) were housed in RAMS and used as donors and recipients for HCT116 cells.
For the evaluation of the compound against leucosis in vivo, we used 5 and 8 passages of P388 culture. […]

[1] = test system: p53, PUMA, CASPASE-3 in HCTwt cells; test: Western blot, p53 and p53-dependent apoptosis proteins; type: cell-based
Description: To verify the mechanism of cytotoxic action of the synthesized dispiro-indolinones, Western blot testing of dispiro-indolinone 29 was performed using the p53-expressing HCTwt and LNCaP cell lines. Both the p53 protein and the proteins involved in the p53-dependent process of apoptosis (i.e., BAX, NOXA, and PUMA) were determined. For comparison, similar testing was carried out for a cell line not expressing p53 (HCT^(−/−)).

[2] = Solubility in aqueous media (observation); type: physicochemical; conditions: observed in acute toxicity pilot, doses > 2500 mg/kg not feasible
Description: To select the doses, the pilot experiments were carried out on a minimum number of animals. […] When administered in large doses during autopsy in the abdominal cavities of the mice, on the inner wall and membranes of the abdominal organs, remnants of the non-absorbed drug were found in the form of white layers, indicating incomplete absorption and insufficient solubility of the agent. […] According to the data obtained from the trial experiment, in the main study—with intraperitoneal administration—a dose of 2500 mg/kg was used.

HCT116 tumor xenografts = test: HCT116 xenograft model
Description: The first implantation of HCT116 tumor cells (1 × 10^6 in a volume of 0.5 mL) was performed subcutaneously into two BALB/c nude mice. The first transplantation of the xenograft (50 mg) was performed after 30 days into 2 mice (the 3rd passage was used in vivo). […] Then, in a laminar flow hood, the tumor suspension (0.5 mL, the first passage) was implanted subcutaneously into the flank area of two BALB/c nude mice (males). After a volume of 0.8–1.0 cm^3 was achieved, the nudes were passaged using 4 donor mice to obtain the desired grade and mass of the transplants. […] The tumor nests were mechanistically disintegrated to obtain 10% of the tumor samples, and then the nutrient medium was added. The inoculation was performed using individual sterile plastic syringes (1 mL) equipped with 18G suture needles. The transplantation was carried out bilaterally in the flank areas. Each mouse was inoculated with 0.5 mL (10%) of the tumor suspension (40 mg of the tumor mass for each animal). Prior to inoculation, the animals’ skin was treated with 70% alcohol. Between injections, the Petri dish containing the tumor suspension was tightly covered to avoid any contamination. Before injection, the suspension was vigorously stirred in a syringe. […]

[3] = first trial, i.p. 295 mg/kg (g1)
[4] = first trial, i.p. 882 mg/kg (g2)

CCOc1ccc(N2C(=O)C3(NC2=S)C(c2ccc(Cl)cc2)CN(C)C32C(=O)Nc3ccc(Br)cc32)cc1 (centres unmarked) [Compound 29]
IC50 (LNCaP cells): 3.5 ± 1.9 µM | IC50 (PC3 cells): 9.8 ± 3.7 µM | IC50 (HCT^wt cells): 14.1 ± 4.2 µM | IC50 (HCT^−/− cells): 70.5 ± 15.2 µM | mortality at highest dose, close to the MTD (P388; 1263 mg/kg (12,630 mg/kg cumulative), day 3 after the treatment was stopped): one mouse (bw = 19 g) dying | days on which lethal outcomes were registered (P388; [3]): 16 to 24 days | LSE (lifespan extension) (P388; first trial, i.p. 295 mg/kg (g1), p > 0.05): 17% | ALS (average life span) (P388; [3]): 19.8 ± 3.0 days | days on which lethal outcomes were registered (P388; [4]): 18 to 22 days | LSE (lifespan extension) (P388; first trial, i.p. 882 mg/kg (g2), p > 0.05): 19% | ALS (average life span) (P388; [4]): 19.4 ± 1.7 days | days on which deaths were observed (P388; first trial, i.p. 1176 mg/kg (g3)): 14 to 22 days | TGRI (P388; first trial, i.p. 1176 mg/kg (g3), subsequent three days): 40% | TGRI (P388; first trial, i.p. 1176 mg/kg daily (g3), 24 h after the treatment was discontinued): 76% | T/C (P388; first trial, i.p. o.d. 10 days, 295 and 882 mg/kg): < 42% | TGRI (tumor growth rate inhibition) (P388; first trial, sample (17% compound, Pluronic F-127) i.p. o.d. 10 days, 295 mg/kg (g1) and 882 mg/kg (g2), p > 0.05): 32–37% | TGRI (P388; i.p. 500 mg/kg): approx. 50% | Т/C% (P388; p.o. 170 mg/kg o.d. 10 days, day 12): 84% | Tumor volume, av. volume (P388; p.o. 170 mg/kg o.d. 10 days, day 12, control 570): 481 mm3 | Tumor volume, av. volume (P388; p.o. 170 mg/kg o.d. 10 days, day 15, control 804): 1099 mm3 | TGRI (P388; second trial, i.p. 750 mg/kg o.d., day 2 after the treatment was completed, p = 0.002): 68% | TGRI (P388; second trial, i.p. 750 mg/kg o.d., subsequent 3 days): 62% | LSE (P388; third trial, i.p. 1000 mg/kg o.d.): 33.33% | TGRI (P388; third trial, i.p. 1000 mg/kg o.d. 10 days, day 2 after the treatment was completed): 81.3% | TGRI (P388; third trial, i.p. 1000 mg/kg o.d., day 8 after the treatment was discontinued (final control timepoint)): 93% | TGRI (P388; third trial, i.p. 1000 mg/kg o.d., following 3 days): 89% | concentration / expression of the p53 protein ([1]; HCTwt cell culture, increasing concentration, nutlin-3a 20 µM positive control): slight increase | expression of CASPASE-3 ([1]; Western blot): increase | expression of PUMA ([1]; Western blot): increase | solubility in aqueous media [2]: low solubility | T/C (HCT116 tumor xenografts; 1000 mg/kg i.p. o.d. 10 days, after 4 days, p = 0.0007): 44% | T/C (treatment/control) (HCT116 tumor xenografts; sample 1000 mg/kg i.p. o.d. 10 days, after 24 h, p = 0.00005): 25%
